Assays:
Format in all cases: in vivo, dog
[1] = tested on: total antioxidant capacity (TAC); assay: Serum total antioxidant capacity (TAC), Example 1; conditions: for Change in TAC, post-run minus pre-run: following 15 mile long run at 13 wk, mean ± SEM
Description: Blood Analysis: Serum samples were taken at three different times from each dog during the 90 day period. The blood samples were collected as follows: 1.) just prior to scanning each dog for body composition at the beginning of the study, 2.) prior to the long run on the 13th week, and 3.) following the long run on the 13th week. The serum samples were analyzed for Phosphocreatine Kinase and Canine Myoglobin to determine the amount of muscle protein leakage that occurred following the long run and TBARS and Total Antioxidant Capacity (TAC) were determined to evaluate the antioxidant status of each of the test dogs during the exercise program. The final blood sample was taken 24 hr after the long run to obtain maximum protein leakage based on previous similar types of exercise research with human athletes. Biomarkers and Assay Methods: Blood was drawn from each dog using a serum separator tube at three different times during the 90 day period: 1.) just prior to scanning each dog for body composition at the beginning of the study, 2.) prior to the long run on the 13th week, and 3.) following the long run on the 13th week. The final blood sample was taken 24 hr after the long run to obtain maximum protein leakage based on previous similar types of exercise research with human athletes. Each time after the blood was drawn it was allowed to clot before being centrifuged for 15 min at 2000 g at 4° C. Serum was aliquoted into 1.5 mL microcentrifuge tubes and stored at −80° C. until assays were ran following the end of the study. Creatine kinase (CK) and canine myoglobin were measured to determine the amount of muscle protein leakage that occurred following the long run. Thiobarbituric acid reactive substances (TBARS) and total antioxidant capacity (TAC) were measured to evaluate the antioxidant status of each of the test dogs during the exercise program. Serum samples were analyzed for total antioxidant capacity (TAC) and thiobarbituric acid reactive substances (TBARS) using commercially available colorimetric kits supplied by Cayman Chemical Company (Ann Arbor, Mich.) per manufacturer instructions. Serum canine myoglobin levels were determined using a commercially available ELISA supplied by Innovate Research (Novi, Mich.) per manufacturer instructions. Creatine kinase activity was determined colorimetrically using a commercially available kit supplied by BioVision (San Francisco, Calif.).

canine myoglobin = assay: Serum canine myoglobin, Example 2 part one; conditions: for Serum myoglobin: Ex.2 part one, 250 mg/d; for Myoglobin: serum
Description: Twenty-four hours after test dogs ran the last 15 mile endurance run, serum samples were taken to evaluate biomarkers for muscle damage and antioxidant status. Blood samples were taken 1) just prior to the beginning of the study; 2) 1 day prior to running the final 15 mile run on the 14th week; 3) 1 hour immediately following the 15 mile run; and 4) 24 hours following the final 15 mile run. After a blood sample was drawn, it was allowed to clot for 30 minutes at 25° C. before being centrifuged for 15 minutes at 2000 g at 4° C. Serum was aliquoted into 0.65 mL microcentrifuge tubes and stored at −80° C. until being assayed at the end of the study for creatine kinase, canine myoglobin, thiobarbituric acid reactive substances (TBARS), and total antioxidant capacity (TAC) using the commercially available kits described in Example 1.

[2] = Food offered and food consumption (per day, per kg BW, per kg lean mass), Example 2 part one
Description: The performance dogs were weighed at the beginning of the study and at one week intervals until the end of part one. Feed consumption and refusals were determined daily by weighing and recording the amount offered or refused. The quantity of food provided to each dog on a daily basis was adjusted based on the goal of maintaining the dog's minimum body weight throughout the study. The consumption per kg of lean mass was determined by dividing the mean lean mass of each group into its mean daily food consumption value at the initial and then the final body scans.

[3] = Ex.2 part one, 250 mg/d, 14 week study
[4] = Ex.2 part one, 250 mg/d, week 1

C[N+](C)(C)C[C@H](O)CC(=O)[O-] [L-carnitine]
TAC Least Sq Mean ([1]; Baseline): 0.1066 mM Trolox Equiv | TAC Least Sq Mean ([1]; Baseline, F): 0.1064 mM Trolox Equiv | TAC Least Sq Mean ([1]; Baseline, M): 0.1067 mM Trolox Equiv | TAC, serum, Mean ([1]; Ex.1, 250 mg/d, Baseline, both sexes): 0.107 mM Trolox Equiv | TAC, serum, Mean ([1]; Ex.1, 250 mg/d, Baseline, females): 0.106 mM Trolox Equiv | TAC, serum, Mean ([1]; Ex.1, 250 mg/d, Baseline, males): 0.107 mM Trolox Equiv | TAC, serum, Mean ([1]; Ex.1, 250 mg/d, Post-run, both sexes): 0.087 mM Trolox Equiv | TAC, serum, Mean ([1]; Ex.1, 250 mg/d, Post-run, females): 0.069 mM Trolox Equiv | TAC, serum, Mean ([1]; Ex.1, 250 mg/d, Post-run, males): 0.102 mM Trolox Equiv | TAC, serum, Mean ([1]; Ex.1, 250 mg/d, Pre-run, both sexes): 0.118 mM Trolox Equiv | TAC, serum, Mean ([1]; Ex.1, 250 mg/d, Pre-run, females): 0.106 mM Trolox Equiv | TAC, serum, Mean ([1]; Ex.1, 250 mg/d, Pre-run, males): 0.128 mM Trolox Equiv | Effect on TAC of the test dogs ([1]; Ex.1, 250 mg/d, during the study, vs control): did not have a significant effect | Change in TAC, post-run minus pre-run ([1]; Ex.1, 250 mg/d, both sexes): −0.03 ± 0.01 n = 20 mM Trolox Equiv | Change in TAC, post-run minus pre-run ([1]; Ex.1, 250 mg/d, females): −0.04 ± 0.01 n = 9 mM Trolox Equiv | Change in TAC, post-run minus pre-run ([1]; Ex.1, 250 mg/d, males): −0.03 ± 0.01 n = 11 mM Trolox Equiv | TAC Least Sq Mean ([1]; Post-run): 0.08522 mM Trolox Equiv | TAC Least Sq Mean ([1]; Post-run, F): 0.06866 mM Trolox Equiv | TAC Least Sq Mean ([1]; Post-run, M): 0.1018 mM Trolox Equiv | TAC Least Sq Mean ([1]; Pre-run): 0.1171 mM Trolox Equiv | TAC Least Sq Mean ([1]; Pre-run, F): 0.1063 mM Trolox Equiv | TAC Least Sq Mean ([1]; Pre-run, M): 0.128 mM Trolox Equiv | TAC Least Sq Mean ([1]; Treatment * Sex, F): 0.1064 mM Trolox Equiv | TAC Least Sq Mean ([1]; Treatment * Sex, M): 0.1067 mM Trolox Equiv | TAC Least Sq Mean ([1]; Treatment level, all dogs): 0.1066 mM Trolox Equiv | Total Antioxidant capacity, mixed model Estimate, term Time[Post-run-Pre-run] * Treatment[L-carnitine] ([1]; serum, model term): −0.001428 | Total Antioxidant capacity, mixed model Estimate, term Time[Post-run-Pre-run] * Treatment[L-carnitine] * Sex[F] ([1]; serum, model term): −0.001227 | Total Antioxidant capacity, mixed model Estimate, term Time[Pre-run-Baseline] * Treatment[L-carnitine] ([1]; serum, model term): −0.00085 | Total Antioxidant capacity, mixed model Estimate, term Time[Pre-run-Baseline] * Treatment[L-carnitine] * Sex[F] ([1]; serum, model term): 0.001958 | Total Antioxidant capacity, mixed model Estimate, term Treatment[L-carnitine] ([1]; serum, model term): 0.001356 | Total Antioxidant capacity, mixed model Estimate, term Treatment[L-carnitine] * Sex[F] ([1]; serum, model term): 0.001671 | Serum myoglobin (canine myoglobin; post-run 1 hour): 23.83 ng/mL | Serum myoglobin (canine myoglobin; post-run 24 hour): 9.25 ng/mL | Myoglobin (canine myoglobin; FEMALES, Baseline): 17.33 ± 4.7 ng/mL | Myoglobin (canine myoglobin; FEMALES, Post-Run 1 Hr): 25.19 ± 4.25 ng/mL | Myoglobin (canine myoglobin; FEMALES, Post-Run 24 Hr): 8.08 ± 2.83 ng/mL | Myoglobin (canine myoglobin; FEMALES, Pre-Run): 4.88 ± 1.24 ng/mL | Myoglobin (canine myoglobin; MALES, Baseline): 22.22 ± 6.92 ng/mL | Myoglobin (canine myoglobin; MALES, Post-Run 1 Hr): 22.46 ± 4.41 ng/mL | Myoglobin (canine myoglobin; MALES, Post-Run 24 Hr): 4.41 ± 0.64 ng/mL | Myoglobin (canine myoglobin; MALES, Pre-Run): 8.69 ± 3.25 ng/mL | Myoglobin (canine myoglobin; Whole Groups, Baseline): 19.78 ± 4.13 ng/mL | Myoglobin (canine myoglobin; Whole Groups, Post-Run 1 Hr, Post-Run 1 Hr): 23.83 ± 3.02 ng/mL | Myoglobin (canine myoglobin; Whole Groups, Post-Run 24 Hr, Post-Run 24 Hr): 6.25 ± 1.47 ng/mL | Myoglobin (canine myoglobin; Whole Groups, Pre-Run): 6.78 ± 1.74 ng/mL | Mean Food Intake Over 14 wk Duration/Lean Mass ([2]; Change, F): −2.46 g/d/kg Lean Mass | Mean Food Intake Over 14 wk Duration/Lean Mass ([2]; Change, M): −1.98 g/d/kg Lean Mass | Overall mean amount of food offered per day [2, 3]: 677 g/day | Overall mean food intake per day [2, 3]: 574 g/day | Mean food intake per kg lean mass ([2]; Ex.2 part one, 250 mg/d, Final body composition scan): 24.02 g/d/kg LM | Mean food intake per kg lean mass ([2]; Ex.2 part one, 250 mg/d, Initial body composition scan): 26.24 g/d/kg LM | Change in mean food intake per kg lean mass ([2]; Ex.2 part one, 250 mg/d, final minus initial over 14 wks): −2.22 g/d/kg LM | Amount of food consumed [2, 4]: 618.25 g/day | Food consumption per kg body weight [2, 4]: 20.96 g/d/kg BW | Intake of kcals of ME [2, 4]: 83.83 kcal/d/kg BW | Amount of food consumed ([2]; Ex.2 part one, 250 mg/d, week 4): 629.43 g/day | Mean Food Intake Over 14 wk Duration/Lean Mass ([2]; Final, F): 27.46 g/d/kg Lean Mass | Mean Food Intake Over 14 wk Duration/Lean Mass ([2]; Final, M): 20.58 g/d/kg Lean Mass | Mean Food Intake Over 14 wk Duration/Lean Mass ([2]; Initial, F): 29.92 g/d/kg Lean Mass | Mean Food Intake Over 14 wk Duration/Lean Mass ([2]; Initial, M): 22.56 g/d/kg Lean Mass | Daily Food Intake ([2]; Week 1): 618.25 ± 22.33 g | Daily Food Intake (ME) ([2]; Week 1): 83.83 ± 1.85 kcal ME/d/kg BW | Daily Food Intake per kg BW ([2]; Week 1): 20.96 ± 0.46 g/d/kg BW | Daily Food Intake ([2]; Week 2): 608.79 ± 22.8 g | Daily Food Intake (ME) ([2]; Week 2): 85.21 ± 2.22 kcal ME/d/kg BW | Daily Food Intake per kg BW ([2]; Week 2): 21.3 ± 0.55 g/d/kg BW | Daily Food Intake ([2]; Week 3): 600.54 ± 19.89 g | Daily Food Intake (ME) ([2]; Week 3): 82.87 ± 2.34 kcal ME/d/kg BW | Daily Food Intake per kg BW ([2]; Week 3): 20.72 ± 0.58 g/d/kg BW | Daily Food Intake ([2]; Week 4): 629.43 ± 21.4 g | Daily Food Intake (ME) ([2]; Week 4): 86.54 ± 2.08 kcal ME/d/kg BW | Daily Food Intake per kg BW ([2]; Week 4): 21.64 ± 0.52 g/d/kg BW | Daily Food Intake ([2]; Week 5): 597.07 ± 18.65 g | Daily Food Intake (ME) ([2]; Week 5): 81.86 ± 1.82 kcal ME/d/kg BW | Daily Food Intake per kg BW ([2]; Week 5): 20.47 ± 0.45 g/d/kg BW | Daily Food Intake ([2]; Week 6): 579.11 ± 21.17 g | Daily Food Intake (ME) ([2]; Week 6): 78.87 ± 2.06 kcal ME/d/kg BW | Daily Food Intake per kg BW ([2]; Week 6): 19.72 ± 0.51 g/d/kg BW | Daily Food Intake ([2]; Week 7): 584.5 ± 18.91 g | Daily Food Intake (ME) ([2]; Week 7): 79.61 ± 1.97 kcal ME/d/kg BW | Daily Food Intake per kg BW ([2]; Week 7): 19.91 ± 0.49 g/d/kg BW | Daily Food Intake ([2]; Week 8): 547.14 ± 20.91 g | Daily Food Intake (ME) ([2]; Week 8): 74.21 ± 2.16 kcal ME/d/kg BW | Daily Food Intake per kg BW ([2]; Week 8): 18.55 ± 0.54 g/d/kg BW | Daily Food Intake ([2]; Week 9): 602.79 ± 23.4 g | Daily Food Intake (ME) ([2]; Week 9): 81.55 ± 2.2 kcal ME/d/kg BW | Daily Food Intake per kg BW ([2]; Week 9): 20.39 ± 0.55 g/d/kg BW | Daily Food Intake ([2]; Week 10): 580.04 ± 21.88 g | Daily Food Intake (ME) ([2]; Week 10): 78.76 ± 2.25 kcal ME/d/kg BW | Daily Food Intake per kg BW ([2]; Week 10): 19.69 ± 0.56 g/d/kg BW | Daily Food Intake ([2]; Week 11): 543.89 ± 19.79 g | Daily Food Intake (ME) ([2]; Week 11): 73.79 ± 2.09 kcal ME/d/kg BW | Daily Food Intake per kg BW ([2]; Week 11): 18.45 ± 0.52 g/d/kg BW | Daily Food Intake ([2]; Week 12): 493.68 ± 19.06 g | Daily Food Intake (ME) ([2]; Week 12): 66.64 ± 1.71 kcal ME/d/kg BW | Daily Food Intake per kg BW ([2]; Week 12): 16.66 ± 0.43 g/d/kg BW | Daily Food Intake ([2]; Week 13): 511.82 ± 22.64 g | Daily Food Intake (ME) ([2]; Week 13): 68.71 ± 2.06 kcal ME/d/kg BW | Daily Food Intake per kg BW ([2]; Week 13): 17.18 ± 0.51 g/d/kg BW | Daily Food Intake ([2]; Week 14): 543.5 ± 26.43 g | Daily Food Intake (ME) ([2]; Week 14): 73.21 ± 2.75 kcal ME/d/kg BW | Daily Food Intake per kg BW ([2]; Week 14): 18.3 ± 0.69 g/d/kg BW

From patent publication US10016382B2, “Method for decreasing skeletal muscle damage and/or oxidative stress in mammals” (LONZA INC., priority 2014, dated 2018)
